The text below walks through data of patent EP3753563A1, “ANTI-HERPESVIRUS GUANOSINE ANALOGUE FOR THE INHIBITION OF BASAL AUTOPHAGY” (Helmholtz-Zentrum für Infektionsforschung GmbH, priority 2019, dated 2020).

The test system of assay [1] is A549 GFP-LC3B reporter cells. Nature of the assay: High-content GFP-LC3B puncta analysis in fed or starved A549 reporter cells. The format is cell-based, human. The protocol: (§1) For the single reporter analyses of figure 1 A549 stably transduced with a retroviral GFP LC3 fusion vector were used, for the tandem reporter analyses of figure 2 NIH mouse fibroblasts stably transduced with a retroviral RFP-GFP-LC3B fusion construct were employed. Cells were seeded on 96-well plates at a density of 3.5 x 10^4 cells per well in 100 µL of their respective growth medium (DMEM for NIH3T3 and F-12K for A549, respectively). The plates were left at room temperature for one hour without moving them to guarantee an even distribution of the cells on the well bottom and then cultured over night at 37 °C and 5% CO2.
(§2) On the next day, compounds were added at the appropriate concentration in either 100 µL of their normal fed medium or 100 µL of Hank's balanced salt solution (HBSS) to induce starvation and then cultured at 37 °C and 5% CO2 for 3 h or 1.5 h respectively. Subsequently, cells were carefully washed once with phosphate buffered saline (PBS), fixed in 4% formaldehyde for 20 min at room temperature and washed again twice with PBS. Nuclear staining was performed using 0.05% Hoechst 33342 solution in PBS for 10 min at room temperature.
After another two times of washing in PBS, cells could be stored in PBS at 4 °C and were ready for measurement with the automatic fluorescence microscope (ImageXpress Micro XLS Widefield High-Content Imaging system). For each well, images at nine different sites were taken automatically (60x objective, magnification 600x). […]
Duplicate samples were analyzed comprising 500-1000 cells/well, which represents a coverage of at least 2%/well. Analyses were performed using the Transfluor modul of MetaXpress 6 software (Molecular Devices) with the following settings: vesicle width 0.5 µm - 5 µm and necessary intensity above local background 2000 gray levels determined from the FITC or 500 gray levels determined from the Texas Red image. Size of nuclei 5 µm - 30 µm and necessary intensity above local background 2000 gray levels determined from the DAPI image.

The test system of assay [2] is 3T3 fibroblasts harbor a RFP-GFP-LC3B tandem reporter construct. Description: RFP-GFP-LC3B tandem reporter analysis of autophagic flux. Format: cell-based, mouse. The note with it: for mode of autophagy modulation: mouse 3T3 fibroblasts. Here is the method:
as §1, §2
After another two times of washing in PBS, cells could be stored in PBS at 4 °C and were ready for measurement with the automatic fluorescence microscope (ImageXpress Micro XLS Widefield High-Content Imaging system). For each well, images at nine different sites were taken automatically (60x objective, magnification 600x). Exposure times were 150 ms for DAPI, 1000 ms for FITC (single reporter LC3) and 150 ms for DAPI, 1000 ms for FITC, 5000 ms for Texas Red (tandem reporter analysis).
NIH/3T3 cells stably expressing RFP-GFP-LC3 were treated to induce or inhibit autophagy (for control) and with the compound in question and taken for image acquisition (described above). Between 120-160 cells were analyzed in each quantification for vesicular, red spot numbers and colocalization of punctate red/green signals using the Gen5 software package (BioTek). Average values are shown.
In this assay, red spot numbers correlate with total LC3 autophagic particles, yellow colocalization parallels the number of autophagosomes/phagophores.

For assay [3], the system named is wt and mutant ATG4D^G1288A Lagotto Romagnolo dog fibroblasts. Description: LC3 Western blot of basal and induced autophagy in dog fibroblasts (NVSD model). The format is cell-based. The protocol:
Induction (starvation in Earle's Balanced Salt Solution (EBSS)) increases autophagy activity, as detected by formation of the marker LC3-II. Since autophagy consists of several steps and the last one is a degradation step, a block must be set in order to assess the proportion of the synthesis/maturation step more precisely. To this end, Bafilomycin A1 (BafA1) is added to the cells. BafA1 inhibits the fusion of autophagosomes to autolysosomes and then the degradation of the vesicle content. The comparison +/- Baf A1 is used to measure the autophagy flux. Since BafA1 inhibits the degradation of vesicle contents, LC3-II determination in WBs can be used to determine the rate of autophagosome production/maturation (corresponding to the early to middle part of the autophagy process) and the rate of autolysosomal degradation (late phase), i.e. the total degradation capacity.
A reference sample was loaded onto each gel to compare the results of different gels. The reference sample consists of WT cells grown in full medium conditions without any treatment. Graphs show expression levels of LC3-II normalized to the loading control (tubulin) and the reference sample and represent mean + SEM.
Fibroblasts from affected dogs and age-, breed-, and sex-matched controls were cultured in high glucose Dulbecco's Modified Eagle Medium (DMEM 41965-039 Gibco) with 10% fetal bovine serum (FBS 10500056 Gibco) and penicillin-streptomycin (PenStrep15140122 Gibco). During second or third passages, cells were seeded at equal density onto Petri dishes and additionally onto glass cover slips. […] Beta actin was used as the loading control for relative quantification of the blots (anti-beta Actin PA5-16914 Thermo Fischer Scientific). Signals were visualized by enhanced chemiluminescence and further analyzed by densitometry. […]
Background: A western blot detects proteins with antibodies after separation by electrophoresis.

In another assay the test system is HSV. The conditions noted are these: read-out: EC 50 concentration for HSV inhibition; cited from earlier work.

`CC(=O)OCC(CCn1cnc2cnc(N)nc21)COC(C)=O` [Famciclovir]: the “reduction of LC3 fluorescence compared to the control” value in assay [1] (fed A549 cells, vesicular GFP 3h after treatment) is listed as 2 -fold.
With `CCN(CC)CCCC(C)Nc1ccnc2cc(Cl)ccc12` (stereo not shown) [Chloroquine], in assay [2], the “mode of autophagy modulation” value is on record as “late inhibition”. Also, the “total LC3 containing autophagic particle numbers compared to the control” value in assay [2] (red spot numbers, 2 µM Chloroquine, 120-160 cells) is given as “increased”.
Take `Nc1nc2c(ncn2COCCO)c(=O)[nH]1` [compound A2, aciclovir]: the “LC3-II levels of basal autophagy” value in assay [3] (mutant LR cells, 1 µM A2, two hours, with BafA1) is “diminishes LC3-II levels of basal autophagy in mutant LR cells to level observed in wt cells”. Also, the “LC3 levels induced by starvation” value in assay [3] (starvation in EBSS, 1 µM A2 (lanes 4 and 8)) is listed as “nearly unaltered”. The “LC3 I” value in assay [3] (treated mutant cells, Western blot lanes 5 DMSO and A2) was “less LC3 I seems to be present”. The “reduction of the number of autolysosomes” value in assay [2] (calculated by subtraction) was 4 fold. For the same compound, in assay [2] (compared to the control), the “reduction of total autophagic particle numbers” value amounted to 40%. The “mode of autophagy modulation” value in assay [2] is given as “early inhibition of autophagy”. Besides, the autophagosome/phagophores result in assay [2] (yellow colocalization) is given as “slight increase”. For the same compound, the EC50 in the assay on HSV was 1.3 µM. Besides, in assay [1] (fed cells (basal autophagy), 3 h, LC3-positive vesicle area per cell), the “amount of membrane-bound GFP-LC3 compared to the control” value is recorded as 60%. Further, the “inhibition of induced autophagy” value in assay [1] (starved cells, 1.5 h) was “does not inhibit induced autophagy”.
